Assay [1] has as its target T1, RNA-binding protein pos-1 (Caenorhabditis elegans, UniProt G5EF15).
T1 sequence (G5EF15 whole entry): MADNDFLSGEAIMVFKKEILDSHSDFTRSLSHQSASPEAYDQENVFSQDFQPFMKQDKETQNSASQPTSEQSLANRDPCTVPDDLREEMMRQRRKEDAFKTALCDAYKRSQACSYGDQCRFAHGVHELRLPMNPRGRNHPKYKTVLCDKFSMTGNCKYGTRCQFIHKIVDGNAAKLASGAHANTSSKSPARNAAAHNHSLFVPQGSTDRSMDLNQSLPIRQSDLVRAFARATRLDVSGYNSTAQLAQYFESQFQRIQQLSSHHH
Description: disruptors of C. elegans POS-1 RNA interaction – biochemical, fluorescence polarization, dose response (AID 1964).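 Note: purified POS-1 fused to maltose binding protein made in E. coli; potency of compounds blocking POS-1 binding to fluorescent RNA.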 For orientation: Polarisation of emitted light reports the rotation of a fluorescent probe.

The target in assay [2] is T2, Zinc finger protein mex-5 (Caenorhabditis elegans, UniProt Q9XUB2).
T2 sequence (Q9XUB2 whole entry): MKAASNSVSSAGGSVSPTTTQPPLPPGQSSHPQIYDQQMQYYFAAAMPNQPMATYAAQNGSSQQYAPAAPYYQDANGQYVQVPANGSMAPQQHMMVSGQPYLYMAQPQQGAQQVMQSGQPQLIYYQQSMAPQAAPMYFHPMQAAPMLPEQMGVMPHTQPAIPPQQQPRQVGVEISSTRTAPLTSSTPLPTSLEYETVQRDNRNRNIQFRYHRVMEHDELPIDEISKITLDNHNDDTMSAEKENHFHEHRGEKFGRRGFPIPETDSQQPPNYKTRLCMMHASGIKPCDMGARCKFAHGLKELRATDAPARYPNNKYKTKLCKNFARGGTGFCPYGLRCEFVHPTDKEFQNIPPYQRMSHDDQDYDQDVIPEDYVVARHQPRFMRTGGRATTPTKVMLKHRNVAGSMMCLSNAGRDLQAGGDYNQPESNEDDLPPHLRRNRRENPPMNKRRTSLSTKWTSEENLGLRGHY
Description: potency of MEX-5 RNA-binding blockers – biochemical, C. elegans, fluorescence polarization, dose response (AID 1960).

The target in the next assay is Oxytocin receptor (Homo sapiens, UniProt P30559). The assay is described as follows: Counterscreen for vasopressin 1 receptor (V1R) agonists: Fluorescence-based cell-based high throughput dose response assay for agonists of the Oxytocin Receptor (OXTR). [Related pubchem assays: 2435 (Primary screen (OXTR agonists in singlicate)), 434964 (Confirmation screen (V1R agonists in triplicate)), 434969 (Counterscreen (OXTR agonists in …. It counts as functional. For orientation: Counterscreens check selectivity or assay interference.
Sequence of Oxytocin receptor (P30559 whole entry): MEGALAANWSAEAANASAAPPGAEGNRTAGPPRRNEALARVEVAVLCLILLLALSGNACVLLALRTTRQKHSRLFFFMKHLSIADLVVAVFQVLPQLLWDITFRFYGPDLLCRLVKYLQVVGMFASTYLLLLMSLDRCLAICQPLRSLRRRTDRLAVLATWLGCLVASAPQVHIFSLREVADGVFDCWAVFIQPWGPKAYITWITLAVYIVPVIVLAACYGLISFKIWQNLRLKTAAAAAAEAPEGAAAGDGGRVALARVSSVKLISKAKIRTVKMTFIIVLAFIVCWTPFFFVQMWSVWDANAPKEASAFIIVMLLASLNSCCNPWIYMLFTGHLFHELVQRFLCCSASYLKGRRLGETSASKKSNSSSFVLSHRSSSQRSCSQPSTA

The next assay addresses Vasopressin V1a receptor (Homo sapiens, UniProt P37288). Description: Fluorescence-based cell-based high throughput dose response screening assay for agonists of the vasopressin 1 receptor (V1R). Format: functional.
The target of assay [3] is Potassium voltage-gated channel subfamily KQT member 2 (Rattus norvegicus, UniProt O88943, W236L). The assay is described as follows: potentiation of rat KCNQ2 current – cell-based, automated electrophysiology, mechanism study for KCNQ2 potentiator project, dose response (AID 2603). It counts as functional.
Sequence of Potassium voltage-gated channel subfamily KQT member 2 (O88943 whole entry W236L): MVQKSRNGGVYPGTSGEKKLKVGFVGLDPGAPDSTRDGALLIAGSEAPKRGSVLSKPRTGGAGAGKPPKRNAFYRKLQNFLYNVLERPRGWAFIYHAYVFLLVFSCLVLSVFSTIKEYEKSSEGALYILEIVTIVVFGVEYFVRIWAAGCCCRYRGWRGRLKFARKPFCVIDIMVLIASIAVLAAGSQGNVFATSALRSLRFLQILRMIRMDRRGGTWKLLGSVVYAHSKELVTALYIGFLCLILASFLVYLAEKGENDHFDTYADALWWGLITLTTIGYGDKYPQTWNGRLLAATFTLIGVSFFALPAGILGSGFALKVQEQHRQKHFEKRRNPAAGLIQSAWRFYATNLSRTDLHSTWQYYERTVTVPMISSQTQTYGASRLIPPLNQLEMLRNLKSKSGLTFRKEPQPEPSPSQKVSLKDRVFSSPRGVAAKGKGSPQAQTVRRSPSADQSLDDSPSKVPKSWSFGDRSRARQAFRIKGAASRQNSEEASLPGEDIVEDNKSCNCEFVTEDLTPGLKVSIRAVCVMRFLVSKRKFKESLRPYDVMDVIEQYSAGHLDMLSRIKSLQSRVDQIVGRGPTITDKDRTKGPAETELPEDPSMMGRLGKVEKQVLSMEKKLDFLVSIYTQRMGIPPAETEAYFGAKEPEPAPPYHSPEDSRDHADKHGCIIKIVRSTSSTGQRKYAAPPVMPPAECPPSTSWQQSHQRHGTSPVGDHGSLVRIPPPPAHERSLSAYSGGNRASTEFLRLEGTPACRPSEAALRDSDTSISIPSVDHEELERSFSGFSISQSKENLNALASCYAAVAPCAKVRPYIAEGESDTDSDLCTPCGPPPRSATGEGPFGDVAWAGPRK
Assay [4] deals with T3, Replicative DNA helicase DnaB (Mycobacterium tuberculosis, UniProt P9WMR3).
T3 sequence (P9WMR3 whole entry): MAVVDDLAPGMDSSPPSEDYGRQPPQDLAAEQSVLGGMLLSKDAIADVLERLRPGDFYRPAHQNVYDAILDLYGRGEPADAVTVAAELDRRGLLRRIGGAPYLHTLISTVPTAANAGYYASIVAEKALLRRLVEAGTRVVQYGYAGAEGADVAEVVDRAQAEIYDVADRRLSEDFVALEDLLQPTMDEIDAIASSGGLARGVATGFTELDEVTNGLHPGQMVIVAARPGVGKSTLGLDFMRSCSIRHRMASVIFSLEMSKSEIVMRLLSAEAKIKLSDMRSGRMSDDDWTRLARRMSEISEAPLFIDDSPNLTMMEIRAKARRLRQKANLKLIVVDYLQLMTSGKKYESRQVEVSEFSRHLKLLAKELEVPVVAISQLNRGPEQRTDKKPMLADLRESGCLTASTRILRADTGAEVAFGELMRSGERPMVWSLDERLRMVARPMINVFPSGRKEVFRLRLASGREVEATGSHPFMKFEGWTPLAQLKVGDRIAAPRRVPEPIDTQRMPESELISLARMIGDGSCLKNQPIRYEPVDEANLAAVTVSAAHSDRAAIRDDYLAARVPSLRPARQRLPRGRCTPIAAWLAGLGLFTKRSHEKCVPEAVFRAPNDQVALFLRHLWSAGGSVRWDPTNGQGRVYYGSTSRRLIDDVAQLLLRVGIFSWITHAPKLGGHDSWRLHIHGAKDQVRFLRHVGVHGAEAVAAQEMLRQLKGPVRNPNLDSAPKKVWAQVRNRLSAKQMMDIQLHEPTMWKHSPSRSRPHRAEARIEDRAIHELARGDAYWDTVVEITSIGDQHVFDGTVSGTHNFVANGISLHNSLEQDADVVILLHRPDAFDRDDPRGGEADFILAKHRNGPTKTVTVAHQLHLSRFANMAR
Description: DnaB intein splicing inhibitors, dose response, biochemical, cell-free fluorescence (AID 449749). It counts as functional.

Assay [5] has as its target T4, High affinity choline transporter 1 (Homo sapiens, UniProt Q9GZV3).
T4 sequence (Q9GZV3 whole entry): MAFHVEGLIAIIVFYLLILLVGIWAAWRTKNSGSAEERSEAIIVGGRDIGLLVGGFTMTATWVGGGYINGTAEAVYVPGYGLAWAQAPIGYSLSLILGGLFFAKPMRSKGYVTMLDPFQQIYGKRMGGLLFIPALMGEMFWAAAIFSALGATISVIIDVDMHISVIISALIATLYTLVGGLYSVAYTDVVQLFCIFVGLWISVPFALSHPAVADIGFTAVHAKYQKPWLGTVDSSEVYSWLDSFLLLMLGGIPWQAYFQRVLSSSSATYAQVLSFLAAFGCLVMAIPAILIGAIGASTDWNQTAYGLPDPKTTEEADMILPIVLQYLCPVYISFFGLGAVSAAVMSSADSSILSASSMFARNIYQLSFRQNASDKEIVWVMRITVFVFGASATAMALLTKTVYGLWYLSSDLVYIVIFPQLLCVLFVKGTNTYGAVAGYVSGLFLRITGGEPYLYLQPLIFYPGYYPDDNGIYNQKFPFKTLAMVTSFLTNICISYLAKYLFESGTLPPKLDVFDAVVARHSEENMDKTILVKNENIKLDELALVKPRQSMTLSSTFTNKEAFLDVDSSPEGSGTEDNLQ
The assay is described as follows: human choline transporter blockers, potency – cell-based, 5-point CRC, membrane potential dye, dose response (AID 504840). It counts as functional.

The subject of the next assay is Vero. The assay is described as follows: viability of Vero cells under compound – cytotoxicity control for flavivirus capping enzyme inhibitors (AID 588742). It counts as functional. Conditions: Chlorocebus sabaeus.
The target in a further assay is T5, Protein RecA (Mycobacterium tuberculosis, UniProt P9WHJ3).
T5 sequence (P9WHJ3 whole entry): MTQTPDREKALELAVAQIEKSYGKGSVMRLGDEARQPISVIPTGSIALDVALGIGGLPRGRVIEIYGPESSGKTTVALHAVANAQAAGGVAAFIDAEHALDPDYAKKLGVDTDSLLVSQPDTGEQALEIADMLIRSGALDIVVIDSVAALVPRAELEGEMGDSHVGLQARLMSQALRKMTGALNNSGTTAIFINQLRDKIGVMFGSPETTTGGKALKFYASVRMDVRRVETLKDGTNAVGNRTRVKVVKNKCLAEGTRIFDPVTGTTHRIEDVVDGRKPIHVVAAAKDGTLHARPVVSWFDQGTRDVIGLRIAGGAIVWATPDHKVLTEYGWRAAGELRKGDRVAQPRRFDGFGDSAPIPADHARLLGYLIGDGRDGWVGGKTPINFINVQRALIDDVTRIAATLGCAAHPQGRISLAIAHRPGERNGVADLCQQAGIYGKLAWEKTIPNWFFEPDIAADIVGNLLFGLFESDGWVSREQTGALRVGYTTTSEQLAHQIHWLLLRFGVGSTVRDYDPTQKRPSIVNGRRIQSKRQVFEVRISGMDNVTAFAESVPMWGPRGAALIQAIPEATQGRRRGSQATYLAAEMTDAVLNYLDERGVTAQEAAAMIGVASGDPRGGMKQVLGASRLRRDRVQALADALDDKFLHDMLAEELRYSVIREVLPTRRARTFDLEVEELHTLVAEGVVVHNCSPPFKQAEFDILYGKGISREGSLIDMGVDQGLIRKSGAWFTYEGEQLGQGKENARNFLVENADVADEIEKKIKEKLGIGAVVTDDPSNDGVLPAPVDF
Description: Fluorescence Cell-Free Homogeneous Dose Retest to Identify Inhibitors of RecA-Intein Splicing Activity. [Related pubchem assays (depositor defined):AID2097, AID2223, AID489010, AID492950]. Format: functional.

Assay [6] addresses T4, High affinity choline transporter 1. The assay is described as follows: human choline transporter blockers, potency – cell-based, 10-point CRC, membrane potential dye, dose response (AID 588401).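 Note: membrane potential dye fluorescence of choline-evoked depolarization via CHT.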 It counts as functional.
The target in another assay is Genome polyprotein (dengue virus type 2, UniProt P29990). The assay is described as follows: flavivirus cap methylation enzyme inhibition – biochemical, confirmation dose response, primary screen (AID 588689). Format: functional.
Sequence of Genome polyprotein (P29990 2492-3391 limits assumed): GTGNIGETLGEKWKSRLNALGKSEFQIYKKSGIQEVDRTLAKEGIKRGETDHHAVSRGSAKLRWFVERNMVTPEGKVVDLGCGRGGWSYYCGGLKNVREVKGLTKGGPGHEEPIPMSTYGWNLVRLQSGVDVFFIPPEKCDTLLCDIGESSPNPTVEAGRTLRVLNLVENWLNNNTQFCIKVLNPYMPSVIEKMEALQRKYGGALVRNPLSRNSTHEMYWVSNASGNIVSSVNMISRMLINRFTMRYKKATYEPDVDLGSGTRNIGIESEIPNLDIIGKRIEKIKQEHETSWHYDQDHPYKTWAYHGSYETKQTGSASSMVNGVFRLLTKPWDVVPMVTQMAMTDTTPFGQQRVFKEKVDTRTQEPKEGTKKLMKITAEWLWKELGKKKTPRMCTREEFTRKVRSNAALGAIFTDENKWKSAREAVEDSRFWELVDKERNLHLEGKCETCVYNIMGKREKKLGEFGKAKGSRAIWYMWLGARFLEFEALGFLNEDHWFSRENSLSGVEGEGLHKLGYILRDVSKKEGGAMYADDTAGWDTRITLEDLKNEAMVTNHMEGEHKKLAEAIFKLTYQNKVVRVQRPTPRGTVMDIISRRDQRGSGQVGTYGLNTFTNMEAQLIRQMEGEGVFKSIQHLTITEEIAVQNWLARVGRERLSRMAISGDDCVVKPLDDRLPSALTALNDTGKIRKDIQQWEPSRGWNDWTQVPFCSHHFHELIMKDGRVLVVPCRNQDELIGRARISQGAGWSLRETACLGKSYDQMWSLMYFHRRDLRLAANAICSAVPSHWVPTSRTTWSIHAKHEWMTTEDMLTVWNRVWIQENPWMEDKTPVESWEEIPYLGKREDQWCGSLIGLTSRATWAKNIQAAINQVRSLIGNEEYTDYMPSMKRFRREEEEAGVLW
Assay [7] in a line: reduction of Shn3 3'UTR-driven luciferase in osteoblasts – cell-based, Clone20 osteoblasts, firefly luciferase, cherry-picked, dose response (AID 624132).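 Note: firefly luciferase luminescence from reporter carrying the Shn3 3'UTR in osteoblasts.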 Format: functional.
Assay [8] is described as follows: loss of viability in HepG2 cells – cell-based, CellTiter-Glo, cherry-picked, cytotoxicity control for Shn3 inhibitor project, dose response (AID 624134). It counts as functional. For orientation: ATP-based viability assays read luminescence as a measure of living cells.
Assay [9] can be described thus: non-specific 3'UTR reporter inhibition in Clone20-Shn3RL – cell-based, Renilla luciferase, cherry-picked, counter-screen for Shn3 inhibitor project, dose response (AID 624133). It counts as functional.
Assay [10] addresses ATP-binding cassette sub-family B member 6 (Homo sapiens, UniProt Q9NP58). The assay is described as follows: ABCB6 transporter inhibitors, porphyrin accumulation, dose response, flow cytometry, K562-ABCB6 cells, cherry pick 02 (AID 624487). Format: functional. The conditions noted are these: read-out: EC50_MICROM.
The next assay addresses T6, Estrogen receptor (Homo sapiens, UniProt P03372).
T6 sequence (P03372 whole entry): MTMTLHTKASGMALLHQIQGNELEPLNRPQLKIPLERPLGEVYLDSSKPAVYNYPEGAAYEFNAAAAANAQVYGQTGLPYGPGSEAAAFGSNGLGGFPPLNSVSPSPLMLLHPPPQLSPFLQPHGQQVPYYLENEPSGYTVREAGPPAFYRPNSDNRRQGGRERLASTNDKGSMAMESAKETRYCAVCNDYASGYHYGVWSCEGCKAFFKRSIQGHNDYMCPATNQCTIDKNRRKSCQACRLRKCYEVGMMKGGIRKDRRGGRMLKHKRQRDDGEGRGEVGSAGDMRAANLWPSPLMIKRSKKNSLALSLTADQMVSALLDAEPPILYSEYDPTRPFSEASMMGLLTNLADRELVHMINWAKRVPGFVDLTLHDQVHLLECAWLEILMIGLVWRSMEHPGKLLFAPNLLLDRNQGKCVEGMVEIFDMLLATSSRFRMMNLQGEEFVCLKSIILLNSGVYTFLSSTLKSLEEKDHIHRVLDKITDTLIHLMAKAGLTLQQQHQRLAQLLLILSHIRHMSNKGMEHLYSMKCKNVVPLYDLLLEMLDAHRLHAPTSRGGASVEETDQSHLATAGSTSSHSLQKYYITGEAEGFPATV

The target in assay [11] is T7, Carboxy-terminal domain RNA polymerase II polypeptide A small phosphatase 1 (Homo sapiens, UniProt Q9GZU7).
T7 sequence (Q9GZU7 whole entry): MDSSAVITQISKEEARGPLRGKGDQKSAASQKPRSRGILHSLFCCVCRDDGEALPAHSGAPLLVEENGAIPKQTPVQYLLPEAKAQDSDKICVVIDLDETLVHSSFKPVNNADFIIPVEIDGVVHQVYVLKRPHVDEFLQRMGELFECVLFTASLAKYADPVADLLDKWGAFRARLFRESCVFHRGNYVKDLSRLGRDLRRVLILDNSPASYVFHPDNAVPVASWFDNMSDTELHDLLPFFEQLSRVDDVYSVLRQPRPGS
The assay is described as follows: CTDSP1 inhibitors, concentration-response, biochemical, absorbance readout, ultra-high-throughput screen actives (AID 540297). It counts as functional.

The source made the active and inactive calls.

Sequence of ATP-binding cassette sub-family B member 6 (Q9NP58 whole entry): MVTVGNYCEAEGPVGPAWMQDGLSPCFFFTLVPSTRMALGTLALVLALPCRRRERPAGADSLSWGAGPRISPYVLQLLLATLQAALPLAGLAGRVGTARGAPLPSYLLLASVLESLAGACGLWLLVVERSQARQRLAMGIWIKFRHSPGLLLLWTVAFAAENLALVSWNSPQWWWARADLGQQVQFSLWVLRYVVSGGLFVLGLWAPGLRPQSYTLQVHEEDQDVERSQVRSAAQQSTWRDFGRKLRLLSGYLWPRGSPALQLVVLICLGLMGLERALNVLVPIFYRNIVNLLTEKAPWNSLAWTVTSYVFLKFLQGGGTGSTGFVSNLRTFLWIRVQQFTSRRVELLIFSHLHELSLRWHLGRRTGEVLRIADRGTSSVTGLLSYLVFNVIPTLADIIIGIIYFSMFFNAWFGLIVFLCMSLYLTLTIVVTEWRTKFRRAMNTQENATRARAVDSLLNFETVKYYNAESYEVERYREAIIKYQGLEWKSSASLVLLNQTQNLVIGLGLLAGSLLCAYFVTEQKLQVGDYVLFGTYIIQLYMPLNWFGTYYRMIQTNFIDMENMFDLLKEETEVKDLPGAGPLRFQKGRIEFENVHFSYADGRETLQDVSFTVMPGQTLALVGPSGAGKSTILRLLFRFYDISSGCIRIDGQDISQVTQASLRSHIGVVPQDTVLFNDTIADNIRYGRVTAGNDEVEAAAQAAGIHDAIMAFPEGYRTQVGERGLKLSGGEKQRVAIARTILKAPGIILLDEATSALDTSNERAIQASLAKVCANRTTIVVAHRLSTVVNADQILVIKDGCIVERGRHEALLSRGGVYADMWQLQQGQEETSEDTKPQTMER
Sequence of Vasopressin V1a receptor (P37288 whole entry): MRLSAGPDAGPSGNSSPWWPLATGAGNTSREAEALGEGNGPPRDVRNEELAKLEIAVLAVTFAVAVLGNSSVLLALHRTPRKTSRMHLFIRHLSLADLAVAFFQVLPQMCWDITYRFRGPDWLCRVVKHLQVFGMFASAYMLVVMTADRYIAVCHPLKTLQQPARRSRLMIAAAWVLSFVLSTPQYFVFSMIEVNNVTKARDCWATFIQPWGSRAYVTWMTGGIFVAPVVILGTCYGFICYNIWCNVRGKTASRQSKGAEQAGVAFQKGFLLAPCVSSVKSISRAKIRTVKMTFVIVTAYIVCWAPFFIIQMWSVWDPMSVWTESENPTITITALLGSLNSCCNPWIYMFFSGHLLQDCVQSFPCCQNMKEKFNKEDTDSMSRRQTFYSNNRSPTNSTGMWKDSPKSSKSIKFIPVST

Turning to `Cc1cc(C)c(/C=C2\C(=O)Nc3ccccc32)[nH]1` [SEMAXANIB], the EC50 in [1] is on record as > 300 µM (not active); in [2], > 300 µM (not active); at Oxytocin receptor, 11.5 µM (not active); on Vasopressin V1a receptor it was 12.1 µM (not active).

Broadly, the AC50 is the concentration giving half of the maximal activity seen. As a reminder, the IC50 is the concentration that inhibits the measured activity by half. Usually CC50 stands for the concentration that lowers cell viability or growth by half. As to `CCc1nnc(NC(=O)c2nc(S(=O)(=O)Cc3ccc(C)cc3)ncc2Cl)s1`, the values for the EC50 (in assay [3]; at Protein RecA; in [10]) were 4.8 µM (active), 4.11 µM (active) and 29.5 µM (active), respectively. Further, the AC50 in [4] was 5.97 µM (active); in assay [7] it was 3.01 µM (active); in assay [8], > 70 µM (inactive); in [9], 6.18 µM (active). Also, the IC50 in [5] was 3.31 µM (active); in [6], 3.11 µM (active); on Genome polyprotein, > 100 µM (active). Moreover, the CC50 in the assay on Vero is 28.9 µM (active).

As to `CCCN(CCC)S(=O)(=O)c1ccc(NC(=O)Cc2cccs2)cc1`, the IC50 is 16.7 µM (active) on Estrogen receptor and 9.83 µM (active) in assay [11].

The values above are taken from ChEMBL document CHEMBL1201862, “PubChem BioAssay data set” (2004).
